Reference: patent US10751418B2, “Orally bioavailable lipid-based constructs” (SDG, Inc., priority 2007, dated 2020)
No end group written: not given here.

Legend:
Assay type in all cases: in vivo
normal, fasted rats = assay: Blood calcium levels after calcitonin administration; details: subcutaneous injection, control rats
Protocol: Normal, fasted, control rats were given a dose of salmon calcitonin via subcutaneous injection such that an initial 10% reduction in blood calcium was observed. Blood calcium levels were then measured for six hours post injection. An experimental group of rats was given the same effective dose of calcitonin by oral gavage, in the form of a composition comprising calcitonin and approximately 62 mole percent 1,2 distearoyl-sn-glycero-3-phosphocholine, approximately 22 mole percent dihexadecyl phosphate, and approximately 16 mole percent cholesterol. Blood calcium levels were followed for six hours (FIG. 8). […] This difference was statistically significant (FIG. 8).

[1] = test system: mice made diabetic by streptozotocin and alloxan; assay: Blood glucose after oral dosing via drinking water in alloxan-streptozotocin treated mice; details: day seven, 0.1 U/ml in drinking water, tail-vein blood
Source text: Mice used in the present experiment were made diabetic by administering streptozotocin and alloxan. The diabetic animals were then divided into two groups. The control group (11 mice) was orally dosed with regular insulin. The experimental group (7 mice) was orally dosed with a composition comprising insulin and approximately 61 mole percent 1,2 distearoyl-sn-glycero-3-phosphocholine, approximately 22 mole percent dihexadecyl phosphate, approximately 16 mole percent cholesterol, and approximately 1 mole percent poly[Cr-bis(N-2,6-diisopropylphenylcarbamoylmethyl iminodiacetic acid)] (wherein a known portion of the phospholipid component comprised ^14C labeled phospholipid). Dosing was accomplished utilizing the water bottle dosing method described in Experiment 2.
After being made diabetic, […] in both groups were treated identically over a 7 day period and fed with plain food and plain water. Following this 7 day period, rats in the control group were treated for an additional 7 day experimental period with food and regular insulin in the available drinking water at 0.1 U/ml. Over the same 7 day experimental period, the experimental group was fed regular food with the composition of the invention available in the drinking water at 0.1 U/ml. At the end of each 7-day period, blood glucose was measured in a tail-vein sample of blood by a Beckman Blood Glucose Analyzer.

[2] = test system: insulin deficient rats (alloxan and streptozotocin); assay: Liver glycogen after oral GLP-1 in alloxan/streptozotocin treated rats; details: Dose GLP-1 0.01 mg/rat, 2 hours post dosing
Protocol: Rats were fasted overnight. Subsequently, 800 mg each of alloxan and streptozotocin were dissolved in 40 mL of PBS (pH 7, 0.01M). The fasted rats were then treated immediately with a 0.5 mL IP dose to induce insulin deficiency. The animals were then stabilized overnight with water and food. Following stabilization, the rats were fasted overnight to deplete liver glycogen.
Subsequently, the rats were administered 1.5 g glucose/kg body weight and GLP-1 in the form of a GLP-1 associated with a composition comprising approximately 62 mole percent 1,2 distearoyl-sn-glycero-3-phosphocholine, approximately 22 mole percent dihexadecyl phosphate, and approximately 16 mole percent cholesterol (“associated GLP-1”). In separate experiments, the amount of associated GLP-1 was varied. Liver glycogen was measured chemically at 2 hours post dosing.
As a control, unassociated GLP-1 was gavaged in place of associated GLP-1. In a separate control, GLP-1, in a dose similar to that orally gavaged, was injected intraperitoneally.

salmon calcitonin
initial reduction in blood calcium (normal, fasted rats): 10%

regular insulin: regular insulin orally dosed to the control group in drinking water
blood glucose [1]: not altered at all

GLP-1: unassociated GLP-1 peptide, gavaged or injected intraperitoneally as control (HAEGTFTSDVSSYLEGQAAKEFIAWLVKGR; ends and bridges not checked; UniProt P01275 98-127, looked up)
Liver Glycogen ([2]; intraperitoneal): 59 ± 44 mg/g liver
Liver Glycogen ([2]; oral gavage): 40 ± 22 mg/g liver
